Structures can show the parent of a compound that is named as a salt. Where two headings read alike, the source gives them in different places.
Experiments:
[1] = target: T1, M3 muscarinic receptor subtype (rat submandibular gland) (Rattus norvegicus, UniProt P08483); assay: Radioligand binding assay, [3H]-N-methylscopolamine, M3
T1 construct: Submandibular glands and heart were isolated and placed in ice cold homogenising buffer; from tissue; host or cells: rat submandibular gland membranes
Protocol: (§1) The membrane preparation was done with the following modifications: a low spin step of 500 g for 10 minutes at 4° C. was used; the buffer was 20 mM HEPES, 10 mM EDTA, at pH 7.4; the high speed spin was done at 40,000 g and the homogenate was passed through a filter gauge before any spinning.
(§2) Membrane preparation: Submandibular glands and heart were isolated and placed in ice cold homogenising buffer (HEPES 20 mM, 10 mM EDTA, pH 7.4) immediately after sacrifice. The tissues were homogenised in 10 volumes of homogenising buffer and the homogenate was filtered through two layers of wet gauze and filtrate was centrifuged at 500 g for 10 min. The supernatant was subsequently centrifuged at 40,000 g for 20 min. The pellet thus obtained was resuspended in same volume of assay buffer (HEPES 20 mM, EDTA 5 mM, pH 7.4) and were stored at −700C until the time of assay.
(§3) Ligand binding assay: The compounds were dissolved and diluted in DMSO. The membrane homogenates (150-250 μg protein) were incubated in 250 μl of assay buffer (HEPES 20 mM, pH 7.4) at 24-25° C. for 3 h. […] The incubation was terminated by vacuum filtration over GF/B fiber filters (Wallac). The filters were then washed with ice cold 50 mM Tris HCl buffer (pH 7.4). The filter mats were dried and bound radioactivity retained on filters was counted. The IC50 and Kd were estimated by using the non-linear curve fitting program using G Pad Prism software.

[2] = target: T2, M2 muscarinic receptor subtype (rat heart) (Rattus norvegicus, UniProt P10980); assay: Radioligand binding assay, [3H]-N-methylscopolamine, M2
T2 construct: Submandibular glands and heart were isolated and placed in ice cold homogenising buffer; from tissue; host or cells: rat heart membranes
T2 sequence (P10980 1-466): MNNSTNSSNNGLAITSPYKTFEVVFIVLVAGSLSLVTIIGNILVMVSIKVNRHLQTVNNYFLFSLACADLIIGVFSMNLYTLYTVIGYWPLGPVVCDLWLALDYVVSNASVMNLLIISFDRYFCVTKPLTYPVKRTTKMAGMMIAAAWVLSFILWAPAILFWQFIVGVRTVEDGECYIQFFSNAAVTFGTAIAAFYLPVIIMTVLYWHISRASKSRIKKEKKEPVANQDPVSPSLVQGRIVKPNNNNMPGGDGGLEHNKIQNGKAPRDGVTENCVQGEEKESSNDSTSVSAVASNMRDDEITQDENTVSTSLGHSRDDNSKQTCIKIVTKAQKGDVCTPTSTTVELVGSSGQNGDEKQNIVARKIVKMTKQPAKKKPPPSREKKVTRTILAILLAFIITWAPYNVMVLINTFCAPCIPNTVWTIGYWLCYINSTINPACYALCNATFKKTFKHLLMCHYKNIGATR
Protocol: as §1, §2, §3

[3] = tested on: carbachol evoked changes on bladder pressure, heart rate and salivation; assay: In vivo experiments using anesthetized rabbit; details: for ID50 Bladder Pressure / ID50 Heart Rate Response / ID50 Salivary Response: carbachol 1.5 μg/kg intrarterial, i.v. test compound; for Fold Selectivity Bladder versus Heart Rate / Fold Selectivity Bladder versus Salivary: from ID50 values
Protocol: In vivo experiments using anesthetized rabbit: The effect of test substances was studied on carbachol evoked changes on bladder pressure, heart rate and salivation. Male rabbits weighing 1.2-3 kg were anaesthetized with urethane (1.5 g/kg), and administered as a slow intravenous infusion through the marginal ear vein. The tracheae were cannulated to maintain airway patency. Blood pressure was recorded from the femoral artery by means of a Statham P10 EZ pressure transducer connected to a Grass model 7D polygraph. The heart rate was monitored by a tachograph triggered by the pulse wave of blood pressure. The other femoral artery was cannulated for the administration of carbachol. Test compound and saline were infused intravenously via the femoral vein.
The bladder was exposed through a midline laparotomy and both the ureters were identified, carefully separated and ligated. The ureters were incised proximally to allow free flow of urine from the kidney to the exterior. Bladder neck was gently held and the urethra was traced and separated from the adjoining tissues. PE canula was introduced into the bladder and ligated. The bladder was drained and subsequently filled with 15 ml of warm saline (37° C.). The other end of the intravesical catheter was connected to the Grass model 7D polygraph through a Statham P10 EZ pressure transducer to monitor the bladder pressure. Care was taken to keep the exposed area moist and warm. A period of 30-60 min was allowed for stabilization of parameters subsequent to surgery. Salivation response was assessed by placing preweighed absorbent cotton gauze in the buccal cavity for 2 minutes after carbachol administration.
At least two stable responses were obtained. These responses were considered as 100%. Subsequently, effect of increasing dose of test compound or vehicle (i.v,12 to 15 min before carbachol challenge) was studied.
The change in bladder pressure, salivation and agonist induced bradycardia were expressed as % change from pretreatment control.

[4] = Receptor Binding Assay M3 Pki, [3H]-N-methylscopolamine, rat submandibular gland membranes
[5] = Receptor Binding Assay M2 pKi, [3H]-N-methylscopolamine, rat heart membranes

T1 sequence (P08483 whole entry): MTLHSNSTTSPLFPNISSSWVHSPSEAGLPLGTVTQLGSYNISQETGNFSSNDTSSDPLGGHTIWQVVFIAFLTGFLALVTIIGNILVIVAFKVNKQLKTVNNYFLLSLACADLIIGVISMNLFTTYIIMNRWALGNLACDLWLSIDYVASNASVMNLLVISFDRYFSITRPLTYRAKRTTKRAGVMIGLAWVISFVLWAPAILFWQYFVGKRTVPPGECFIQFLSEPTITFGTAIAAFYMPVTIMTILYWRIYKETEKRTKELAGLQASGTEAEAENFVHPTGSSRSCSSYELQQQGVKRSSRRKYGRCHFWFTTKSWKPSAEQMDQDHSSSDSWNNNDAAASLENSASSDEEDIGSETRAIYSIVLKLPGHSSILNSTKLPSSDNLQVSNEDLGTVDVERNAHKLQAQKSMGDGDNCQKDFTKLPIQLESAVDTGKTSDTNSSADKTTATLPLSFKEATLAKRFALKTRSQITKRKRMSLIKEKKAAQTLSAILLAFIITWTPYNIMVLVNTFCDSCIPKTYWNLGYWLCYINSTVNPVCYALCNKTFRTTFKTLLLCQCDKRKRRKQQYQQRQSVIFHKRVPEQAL

Row | SMILES | Ki ([1]; Receptor Binding Assay M3 Pki) | Ki ([2]; Receptor Binding Assay M2 pKi) | also measured
1 | O=C(NCC1C2CNCC21)C(O)(c1ccccc1)C1CCC(F)C1 (mixture of isomers) [Compound 12, (2R,2S) (1α,5α,6α)-N-[3-azabicyclo[3.1.0]hexyl-6-(aminomethyl)-yl]-2-hydroxy-2-(3-fluorocyclopentyl)-2-phenyl acetamide] | 0.912 nM | 25.1 nM | –
2 | O=C(NCC1C2CNCC21)C(O)(c1ccccc1)C1CCC(F)(F)C1 (mixture of isomers) [Compound 13, (2R,2S) (1α,5α,6α)-N-[3-azabicyclo[3.1.0]hexyl-6-(aminomethyl)-yl]-2-hydroxy-2-(3,3-difluorocyclopentyl)-2-phenyl acetamide] | 2 nM | 50.1 nM | –
3 | O=C(NCC1C2CNCC21)C(O)(c1ccccc1)C1CCC(F)(F)C1 (mixture of isomers) [Compound 14, (2R,2S) (1α,5α,6α)-N-[3-azabicyclo[3.1.0]hexyl-6-(aminomethyl)-yl]-2-hydroxy-2-(3,3-difluorocyclopentyl)-2-phenyl acetamide tartarate salt] | 1.35 nM | 72.4 nM | –
4 | O=C(NC[C@H]1[C@@H]2CNC[C@@H]21)C(O)(c1ccccc1)C1CCCC1 (mixture of isomers) [Compound 1, (2R,2S) (1α,5α,6α)-N-[3-azabicyclo[3.1.0]hexyl-6-(aminomethyl)-yl]-2-hydroxy-2-cyclopentyl-2-phenyl acetamide] | 0.525 nM | 12 nM | melting point: 149 to 151 °C
5 | O=C(NC[C@H]1[C@@H]2CNC[C@@H]21)C(O)(c1ccccc1)C1CCCC1 (mixture of isomers) [Compound 2, (2R,2S) (1α,5α,6α)-N-[3-azabicyclo[3.1.0]hexyl-6-(aminomethyl)-yl]-2-hydroxy-2-cyclopentyl-2-phenyl acetamide hydrochloride salt] | 0.316 nM | 4.37 nM | ID50 Bladder Pressure [3]: 3.93 ± 1.1 μg/kg, i.v; ID50 Heart Rate Response [3]: 21.13 ± 4.47 μg/kg, i.v; ID50 Salivary Response [3]: 7.67 ± 1.19 μg/kg, i.v; Fold Selectivity Bladder versus Heart Rate [3]: 12.6 ± 5.7; Fold Selectivity Bladder versus Salivary [3]: 3.08 ± 0.94
6 | COC(C(=O)NC[C@H]1[C@@H]2CNC[C@@H]21)(c1ccccc1)C1CCCC1 (mixture of isomers) [Compound 7, (2R,2S) (1α,5α,6α)-N-[3-azabicyclo[3.1.0]hexyl-6-(aminomethyl)-yl]-2-methoxy-2-cyclopentyl-2-phenyl acetamide] | – | – | Ki ([1]; [3H]-N-methylscopolamine, rat submandibular gland membranes, read-out: Receptor Binding Assay M3 Pki (converted)): 2.45 nM; Ki ([2]; [3H]-N-methylscopolamine, rat heart membranes, read-out: Receptor Binding Assay M2 pKi (converted)): 25.1 nM
7 | O=C(NC[C@H]1[C@@H]2CNC[C@@H]21)C(O)(c1ccccc1)C1CCCCCC1 (mixture of isomers) [Compound 8, (2R,2S) (1α,5α,6α)-N-[3-azabicyclo[3.1.0]hexyl-6-(aminomethyl)-yl]-2-hydroxy-2-cycloheptyl-2-phenyl acetamide] | 1.48 nM | 44.7 nM | –
8 | O=C(NC[C@H]1[C@@H]2CNC[C@@H]21)C(O)(c1ccccc1)C1CCCCC1 (mixture of isomers) [Compound 17, (2R,2S) (1α,5α,6α)-N-[3-azabicyclo[3.1.0]hexyl-6-(aminomethyl)-yl]-2-hydroxy-2-cyclohexyl-2-phenyl acetamide] | 1.35 nM | 50.1 nM | –
9 | CN(C[C@H]1[C@@H]2CNC[C@@H]21)C(=O)C(O)(c1ccccc1)C1CCCC1 (mixture of isomers) [Compound 18, (2R,2S) (1α,5α,6α)-N-[3-azabicyclo[3.1.0]hex-6-ylmethyl)-2-cyclopentyl-2-hydroxy-N-methyl-2-phenyl acetamide] | 0.38 nM | 2.75 nM | –
10 | O=C(NC[C@H]1[C@@H]2CNC[C@@H]21)[C@](O)(c1ccccc1)C1CCC(F)(F)C1 (single isomer, unassigned) [Compound 11] | 1.26 nM | 39.8 nM | –
11 | O=C(NC[C@H]1[C@@H]2CNC[C@@H]21)[C@](O)(c1ccccc1)C1CCCC1 [Compound 4, (2R)-(1α,5α,6α)-N-[3-azabicyclo[3.1.0]hexyl-6-(aminomethyl)-yl]-2-hydroxy-2-cyclopentyl 2-phenyl acetamide hydrochloride salt] | 0.224 nM | 3.72 nM | ID50 Bladder Pressure [3]: 2.14 ± 0.42 μg/kg, i.v; ID50 Heart Rate Response [3]: 5.65 ± 0.86 μg/kg, i.v; ID50 Salivary Response [3]: 4.66 ± 0.56 μg/kg, i.v; Fold Selectivity Bladder versus Heart Rate [3]: 3.43 ± 1.02; Fold Selectivity Bladder versus Salivary [3]: 2.37 ± 0.22
12 | O=C(NC[C@H]1[C@@H]2CNC[C@@H]21)[C@@](O)(c1ccccc1)C1CCCC1 [Compound 5, (2S)-(1α,5α,6α)-N-[3-azabicyclo[3.1.0]hexyl-6-(aminomethyl)-yl]-2-hydroxy-2-cyclopentyl 2-phenyl acetamide] | 31.6 nM | 158 nM | –
13 | O=C(NC[C@H]1[C@@H]2CNC[C@@H]21)[C@@](O)(c1ccccc1)C1CCCC1 [Compound 6, (2S)-(1α,5α,6α)-N-[3-azabicyclo[3.1.0]hexyl-6-(aminomethyl)-yl]-2-hydroxy-2-cyclopentyl 2-phenyl acetamide hydrochloride salt] | 13.2 nM | 77.6 nM | –
14 | O=C(NCC1C2CNCC21)C(O)(c1ccccc1)C1CCC1 [Compound 9, (2R,2S) (1α,5α,6α)-N-[3-azabicyclo[3.1.0]hexyl-6-(aminomethyl)-yl]-2-hydroxy-2-cyclobutyl-2-phenyl acetamide] | 1.26 nM | 9.55 nM | –
15 | O=C(NCC1C2CNCC21)C(O)(c1ccccc1)C1CCC1 [Compound 10, (2R,2S) (1α,5α,6α)-N-[3-azabicyclo[3.1.0]hexyl-6-(aminomethyl)-yl]-2-hydroxy-2-cyclobutyl-2-phenyl acetamide tartarate salt] | 0.316 nM | 6.31 nM | –
16 | O=C(OC[C@H]1[C@@H]2CNC[C@@H]21)C(O)(c1ccccc1)c1ccccc1 [Compound 15, (2R,2S) (1α,5α,6α)-N-[3-azabicyclo[3.1.0]hexyl-6-(aminomethyl)-yl]-2-hydroxy-2,2-diphenyl acetate] | – | – | Ki [1, 4]: 0.0661 nM; Ki [2, 5]: 0.219 nM
17 | O=C(NC[C@H]1[C@@H]2CNC[C@@H]21)C(O)(c1ccccc1)c1ccccc1 [Compound 16, (2R,2S) (1α,5α,6α)-N-[3-azabicyclo[3.1.0]hexyl-6-(aminomethyl)-yl]-2-hydroxy-2,2-diphenyl acetamide] | – | – | Ki [1, 4]: 0.389 nM; Ki [2, 5]: 11.2 nM
18 | Cc1ccc(O)c([C@H](CCN(C(C)C)C(C)C)c2ccccc2)c1 [Tolterodine, reference compound] | – | – | ID50 Bladder Pressure [3]: 25.84 ± 4.24 μg/kg, i.v; ID50 Heart Rate Response [3]: 32.54 ± 5.77 μg/kg, i.v; ID50 Salivary Response [3]: 32.5 ± 10.02 μg/kg, i.v
